Assay results: PubChem BioAssay (NCI)
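1) Cells in 96-well plates. 2) Compound, 48 h, 5 concentrations. 3) Linear interpolation between surrounding doses. 4) Unreached endpoint = highest concentration. The concentration for 50% growth inhibition is given as GI50. TGI: concentration producing complete growth inhibition.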

Experiments:
Assay in all cases: NCI-60 cell line screen, 48 h
[1] = test system: UACC-62 melanoma
[2] = test system: SF-268 CNS
[3] = test system: MDA-MB-231 breast
[4] = test system: NCI/ADR-RES ovarian
[5] = test system: SF-539 CNS
[6] = test system: OVCAR-3 ovarian
[7] = test system: RXF 393 renal
[8] = test system: PC-3 prostate
[9] = test system: UO-31 renal
[10] = test system: A498 renal
[11] = test system: DU-145 prostate
[12] = test system: HS 578T breast
[13] = test system: MCF7 breast
[14] = test system: RPMI-8226 leukemia
[15] = test system: KM12 colon
[16] = test system: SK-OV-3 ovarian
[17] = test system: ACHN renal
[18] = test system: HL-60(TB) leukemia
[19] = test system: U251 CNS
[20] = test system: M14 melanoma
[21] = test system: COLO 205 colon
[22] = test system: SK-MEL-5 melanoma
[23] = test system: MDA-MB-435
[24] = test system: NCI-H460 lung
[25] = test system: CAKI-1 renal
[26] = test system: HT29 colon
[27] = test system: NCI-H23 lung
[28] = test system: NCI-H226 lung
[29] = test system: MOLT-4 leukemia
[30] = test system: 786-0 renal
[31] = test system: SNB-19 CNS
[32] = test system: OVCAR-8 ovarian
[33] = test system: SW-620 colon
[34] = test system: EKVX NSCLC
[35] = test system: SK-MEL-28 melanoma
[36] = test system: SF-295 CNS
[37] = test system: SR leukemia
[38] = test system: SN12C renal
[39] = test system: UACC-257 melanoma
[40] = test system: HOP-92 NSCLC
[41] = test system: A549 NSCLC
[42] = test system: SNB-75 CNS
[43] = test system: SK-MEL-2 melanoma
[44] = test system: BT-549 breast
[45] = test system: IGROV1 ovarian
[46] = test system: HOP-62 NSCLC
[47] = test system: MALME-3M melanoma
[48] = test system: T-47D breast
[49] = test system: HCT-116 colon
[50] = test system: OVCAR-4 ovarian
[51] = test system: K-562 leukemia
[52] = test system: LOX IMVI melanoma
[53] = test system: OVCAR-5 ovarian
[54] = test system: HCT-15 colon
[55] = test system: HCC-2998 colon
[56] = test system: TK-10 renal
[57] = test system: CCRF-CEM leukemia

COc1ccc(-c2cc3c(OC)c(OC)c(OC)cc3oc2=O)cc1
GI50 [1]: 3.95 µM | TGI [1]: > 100 µM | GI50 [2]: 4.95 µM | TGI [2]: 90.9 µM | GI50 [3]: 4.91 µM | TGI [3]: 62.5 µM | GI50 [4]: 2.02 µM | TGI [4]: 7.72 µM | GI50 [5]: 4.09 µM | TGI [5]: 22.9 µM | GI50 [6]: 2.68 µM | TGI [6]: 6.45 µM | GI50 [7]: 5.91 µM | TGI [7]: 63.5 µM | GI50 [8]: 7.42 µM | TGI [8]: > 100 µM | GI50 [9]: 5.59 µM | TGI [9]: 48.8 µM | GI50 [10]: 1.7 µM | TGI [10]: 6.98 µM | GI50 [11]: 4.51 µM | TGI [11]: 59.9 µM | GI50 [12]: 2.59 µM | TGI [12]: 7.96 µM | GI50 [13]: 3.69 µM | TGI [13]: > 100 µM | GI50 [14]: 2.32 µM | TGI [14]: 17 µM | GI50 [15]: 1.79 µM | TGI [15]: > 100 µM | GI50 [16]: 4.67 µM | TGI [16]: 82.2 µM | GI50 [17]: 7.47 µM | TGI [17]: > 100 µM | GI50 [18]: 2.95 µM | TGI [18]: 12.8 µM | GI50 [19]: 4.27 µM | TGI [19]: > 100 µM | GI50 [20]: 3.31 µM | TGI [20]: > 100 µM | GI50 [21]: 3.66 µM | TGI [21]: 14.7 µM | GI50 [22]: 2.57 µM | TGI [22]: 8.51 µM | GI50 [23]: 0.444 µM | TGI [23]: 2.37 µM | GI50 [24]: 3.48 µM | TGI [24]: 17 µM | GI50 [25]: 4.59 µM | TGI [25]: > 100 µM | GI50 [26]: 3.42 µM | TGI [26]: 13.1 µM | GI50 [27]: 3.49 µM | TGI [27]: > 100 µM | GI50 [28]: 13.3 µM | TGI [28]: 78.8 µM | GI50 [29]: 3.92 µM | TGI [29]: 22.2 µM | GI50 [30]: 6.91 µM | TGI [30]: > 100 µM | GI50 [31]: 5.95 µM | TGI [31]: > 100 µM | GI50 [32]: 5 µM | TGI [32]: > 100 µM | GI50 [33]: 2.79 µM | TGI [33]: > 100 µM | GI50 [34]: 8.32 µM | TGI [34]: > 100 µM | GI50 [35]: 5.28 µM | TGI [35]: > 100 µM | GI50 [36]: 4.63 µM | TGI [36]: > 100 µM | GI50 [37]: 1.11 µM | TGI [37]: 12.7 µM | GI50 [38]: 5.04 µM | TGI [38]: > 100 µM | GI50 [39]: 5.47 µM | TGI [39]: > 100 µM | GI50 [40]: 2.61 µM | TGI [40]: 22.4 µM | GI50 [41]: 4.62 µM | TGI [41]: > 100 µM | GI50 [42]: 3.39 µM | TGI [42]: 23 µM | GI50 [43]: 3.48 µM | TGI [43]: > 100 µM | GI50 [44]: 5.85 µM | TGI [44]: 71.6 µM | GI50 [45]: 5.81 µM | TGI [45]: > 100 µM | GI50 [46]: 4.68 µM | TGI [46]: > 100 µM | GI50 [47]: 4.37 µM | TGI [47]: > 100 µM | GI50 [48]: 5.02 µM | TGI [48]: 92.3 µM | GI50 [49]: 3.97 µM | TGI [49]: 18.6 µM | GI50 [50]: 7.6 µM | TGI [50]: > 100 µM | GI50 [51]: 2.02 µM | TGI [51]: > 100 µM | GI50 [52]: 5.32 µM | TGI [52]: > 100 µM | GI50 [53]: 17.8 µM | TGI [53]: > 100 µM | GI50 [54]: 3.43 µM | TGI [54]: > 100 µM | GI50 [55]: 4.41 µM | TGI [55]: > 100 µM | GI50 [56]: 5.11 µM | TGI [56]: 65 µM | GI50 [57]: 3.1 µM | TGI [57]: 45.9 µM

CN1CN(c2ccccc2)C2(CCN(Cc3nc4ccccc4s3)CC2)C1=O
TGI [1]: 30.1 µM | TGI [2]: 44.3 µM | TGI [3]: 27.2 µM | TGI [4]: 33.5 µM | TGI [5]: 32.4 µM | TGI [6]: 32.4 µM | TGI [7]: 29.9 µM | TGI [8]: 28.8 µM | TGI [9]: 29 µM | TGI [10]: 30.7 µM | TGI [11]: 38.3 µM | TGI [12]: 41.8 µM | TGI [13]: 29.5 µM | TGI [14]: 36.2 µM | TGI [16]: 52.7 µM | TGI [17]: 39.8 µM | TGI [18]: 29.1 µM | TGI [19]: 30 µM | TGI [20]: 26.3 µM | TGI [21]: 32.1 µM | TGI [22]: 29.6 µM | TGI [23]: 32.3 µM | TGI [25]: 49.6 µM | TGI [26]: 30.7 µM | TGI [27]: 34.2 µM | TGI [28]: 36.2 µM | TGI [29]: 34.3 µM | TGI [30]: 31.3 µM | TGI [31]: 28.6 µM | TGI [32]: 28.8 µM | TGI [34]: 48.3 µM | TGI [35]: 31.5 µM | TGI [36]: 32 µM | TGI [37]: 33.9 µM | TGI [38]: 31.7 µM | TGI [39]: 30.4 µM | TGI [40]: 28.5 µM | TGI [41]: 33.4 µM | TGI [42]: 32.6 µM | TGI [43]: 34.1 µM | TGI [44]: 30.3 µM | TGI [45]: 30.4 µM | TGI [46]: 30.7 µM | TGI [47]: 31.8 µM | TGI [48]: 32 µM | TGI [49]: 28.1 µM | TGI [50]: 38 µM | TGI [51]: 32.4 µM | TGI [52]: 34.9 µM | TGI [53]: 34.1 µM | TGI [54]: 35.1 µM | TGI [56]: 34.9 µM | TGI [57]: 41.6 µM
